We go through one compound from patent US9428507B2, “Compounds for the treatment of malaria” (The Broad Institute, Inc., priority 2013, dated 2016).

Like-named read-outs stand apart in the source and are kept apart here.

The test system of test [1] is P. berghei (ANKA GFP-luc). Kind of test: In vitro P. berghei liver-stage assay in HepG2 cells. The format is cell-based. The settings on record: Plasmodium berghei, 48 hour incubation, read-out: IC50 exo-erythrocytic stage P. berghei. The procedure: In vitro P. berghei liver-stage assay HepG2 cells were maintained in DMEM, 10% (vol/vol) FBS (Sigma), and 1% (vol/vol) antibiotic-antimycotic in a standard tissue culture incubator (37° C., 5% CO2). P. berghei (ANKA GFP-luc) infected Anopheles stephensi mosquitoes were obtained from the New York University Langone Medical Center Insectary (New York). For assays, ˜17,500 HepG2 cells per well were added to a 384-well microtiter plate in duplicate. After 18-24 h at 37° C. the media was exchanged and compounds were added. After 1 hour, parasites obtained from freshly dissected mosquitoes were added to the plates (4,000 parasites per well), the plates were spun for 10 min at 1,000 rpm, and then the plates were incubated at 37° C. The final assay volume was 30 μL. After a 48 hour incubation at 37° C., Bright-Glo (Promega) was added to the parasite plate to measure relative luminescence. The relative signal intensity of each plate was evaluated with an EnVision (PerkinElmer) system.

Another test concerns P. cynomolgi. Description: In vitro P. cynomolgi liver stage assay in primary rhesus monkey hepatocytes. The format is cell-based. The settings on record: Plasmodium cynomolgi, Hepatocyte, in Macaca mulatta. The procedure:
An in vitro P. cynomolgi liver stage assay was performed as described in Zeeman et al. Antimicrobial Agents and Chemotherapy, 2014, 58:1586-1595. 96-well plates are seeded with freshly isolated or thawed cryopreserved stocks of primary rhesus monkey hepatocytes one or two days before infection with 5×10^4 freshly dissected P. cynomolgisporozoites per well. After 2-3 h of sporozoite invasion into the hepatocytes, culture medium is exchanged for culture medium containing appropriate compound dilutions. Initially, compounds are tested in duplicate in 3 dilutions: 0.1, 1 and 10 μM. Plates are incubated for 6 days with medium exchange (including compound dilutions) every other day. Plates are fixed in methanol and parasites are stained with rabbit anti-PcyHSP70 antiserum in the presence of DAPI to stain the nuclei. Plates are automatically counted in a high-content imager (Operetta®) and small parasites (hypnozoites, s.f.) and large schizonts (I.f.) are recorded, as well as number of hepatocytes as a measure for cytotoxic effects of the compounds. Controls include uninfected hepatocytes, sporozoite infected wells without compound and infected wells with primaquine and atovaquone. When activity is recorded and reported, a more extensive dilution curve can be evaluated: a 7-point 3-fold dilution series from days 0-6.

For another test, the system named is P. falciparum TM90C2B. Kind of test: In vitro P. falciparum blood-stage assay, strain TM90C2B. Type of test: cell-based. Conditions: Plasmodium falciparum. The procedure: (§1) Strains of Plasmodium falciparum (Dd2, 3D7, D6, K1, NF54, V1/3, HB3, 7G8, FCB, TM90C2B) were obtained from Malaria Research and Reference Reagent Resource Center (MR4). P. falciparum isolates were maintained with O-positive human blood in an atmosphere of 93% N2, 4% CO2, 3% O2 at 37° C. in complete culturing medium (10.4 g/L RPMI 1640, 5.94 g/L HEPES, 5 g/L albumax II, 50 mg/L hypoxanthine, 2.1 g/L sodium bicarbonate, 10% human serum and 43 mg/L gentamicin). Parasites were cultured in medium until the parasitemia reached 3-8%. Parasitemia was determined by checking at least 500 red blood cells from a Giemsa-stained blood smear. For the compound screening, a parasite suspension at 2.0% parasitemia and 2.0% hematocrit was created with medium. 25 μl of medium was dispensed into 384-well, black, clear-bottom plates. 100 nl of compounds in DMSO was transferred into the assay plates along with control compound (mefloquine). Next, 25 μl of the parasite suspension in medium was dispensed into the assay plates such that the final parasitemia was 1% and the final hematocrit was 1%. The assay plates were incubated for 72 hours at 37° C. […] The assay plates were read with 505 dichroic mirrors with 485-nm excitation and 530-nm emission settings.

For the next test, the system named is P. falciparum V1/3. Description: In vitro P. falciparum blood-stage assay, strain V1/3. The format is cell-based. The settings on record: Plasmodium falciparum. The procedure:
as §1

A further test concerns P. falciparum 3D7. Kind of test: In vitro P. falciparum blood-stage assay, strain 3D7. The format is cell-based. Conditions: Plasmodium falciparum. The procedure: as §1
The subject of test [2] is P. falciparum 3D7 gametocytes. Description: P. falciparum gametocyte viability assay. The format is cell-based. The settings on record: Plasmodium falciparum, 72 hours, Cell-titer glo, read-out: IC50 erythocytic stage (P. falciparum) sexual (IV & V). The procedure: P. falciparum 3D7 stage Ill-V gametocytes were isolated by discontinuous Percoll gradient centrifugation of parasite cultures treated with 50 mM N-acetyl-D-glucosamine for 3 days to kill asexual parasites. Gametocytes (1.0×10^5) were seeded in 96-well plates and incubated with compounds for 72 hours. In vitro anti-gametocyte activity was measured using Cell-titer glo (Promega).

For another test, the system named is P. falciparum Dd2. Kind of test: In vitro P. falciparum blood-stage assay, strain Dd2. Type of test: cell-based. Conditions: Plasmodium falciparum. The procedure: as §1
For test [3], the system named is P. falciparum asexual erythocytic stage. Description: Erythrocytic stage, asexual (P. falciparum). Type of test: cell-based. Conditions: Plasmodium falciparum. The procedure: as §1
The test system of a further test is P. falciparum K1. Kind of test: In vitro P. falciparum blood-stage assay, strain K1. Conditions: Plasmodium falciparum. Type of test: cell-based. The procedure: as §1
The subject of the next test is P. falciparum D6. Kind of test: In vitro P. falciparum blood-stage assay, strain D6. Type of test: cell-based. The settings on record: Plasmodium falciparum. How it is done: as §1
In a further test the test system is P. falciparum NF54. Description: In vitro P. falciparum blood-stage assay, strain NF54. Conditions: Plasmodium falciparum. Type of test: cell-based. How it is done: as §1
Test [4] has as its system P. berghei (ANKA GFP-luc) sporozoites. Kind of test: In vivo P. berghei liver-stage assay. More on the design: species or system CD-1 mice. The settings on record: orally at 50 mg/kg two hours after sporozoite inoculation. How it is done:
CD-1 mice (n=4 per experimental group; female; 6-7-week-old; 20-24 g) were inoculated intravenously with 1×10^5 freshly isolated P. berghei(ANKA GFP-luc) sporozoites intravenously, and compounds were administered orally at 50 mg/kg two hours later. Bioluminescence signals from the transgenic parasites were monitored by the In vivo Imaging System (IVIS 100, Xenogen; Caliper Life Sciences). Animals with parasitemia exceeding 20% were euthanized.

For `COc1ccc2c3c([nH]c2c1)[C@H](CO)N(C(C)=O)CC31CCN(C(=O)Nc2ccccc2F)CC1` [Compound 15, (R)-2′-acetyl-N-(2-fluorophenyl)-1′-(hydroxymethyl)-7′-methoxy-1′,2′,3′,9′-tetrahydrospiro [piperidine-4,4′-pyrido[3,4-b]indole]-1-carboxamide], the IC50 in test [1] was 459 nM; in the test with P. cynomolgi (large schizonts (l.f.), read-out: IC50 exo-erythrocytic stage P. cynomolgi (l.f)) it was 832 nM; in the test with P. cynomolgi (small parasites (hypnozoites, s.f.), read-out: IC50 exo-erythrocytic stage P. cynomolgi (s.f)) it was 344 nM; with P. falciparum TM90C2B it was 104 nM; in the test on P. falciparum V1/3, 98 nM; in the test on P. falciparum 3D7, 65 nM. Besides, the IC50 was 643 nM in [2]; 73 nM in the test on P. falciparum Dd2; 64 nM in test [3]; 91 nM in the test on P. falciparum K1; 70 nM in the test on P. falciparum D6; 88 nM in the test with P. falciparum NF54. Further, the “Parasitemia of treated animals (untreated controls: systemic parasitemia by day four)” value in [4] is recorded as “remained parasite free”. For the same compound, the “Inhibition of the liver stage of P. berghei in vivo (FIG. 1)” value in [4] (bioluminescence) is recorded as “inhibit the liver stage”.
